In patent publication US6511978B1, “Pyrrole derivatives useful for farnesyl transferase inhibitors and their preparations” (LG Life Sciences, Ltd., priority 1999, dated 2003):

Columns and labels:
Ras farnesyl transferase [1] = target: T1, Ras farnesyl transferase (Rattus norvegicus, UniProt Q02293+Q04631); test: In vivo (intracellular) Ras farnesylation inhibition in Rat2 cell line transformed with H-Ras fused with polybasic lysine domain of K-Ras; type: cell-based; conditions: Rat2 cells transformed with H-Ras/K-Ras polybasic domain fused protein; concentration inhibiting 50% of farnesyl binding; read-out: K-Ras CIC50
T1 construct: endogenous in cells; host or cells: Rat2 fibroblasts transformed with C-Harvey-Ras or with the H-Ras/K-Ras polybasic-domain fusion
Protocol: (§1) In the present experiment, Rat2 cell line which expresses C-Harvey-Ras protein having transforming activity and Rat2 cell line(Korean patent application No. 97-14409) which is transformed with fused protein of H-Ras substituted with polybasic lysine domain at C-terminus of K-Ras were used. The experiment was performed by the modified Declue's method(Declue. J. E. et al., Cancer Research, 51, 712, 1991) as follows.
(§2) 3×10^5 cells of transformed Rat2 fibroblast cell line were sprayed on 60 mm cell cultivation dish and cultivated for 48 hours in a cell incubator at 37° C. and after 50% or more of density was reached, it was treated with the test compounds. The compound according to the present invention dissolved in dimethylsulfoxide(DMSO) was used. 1% concentration of dimethylsulfoxide was used in both control and test groups. After 4 hours from the treatment with the compound, methionine labeled with 150 μCi of radioactive isotope [^35S] per 1 ml of medium was added and after cultivating for 20 hours, the cells were washed with physiological saline water. The cells were lysed using 1 ml of cold cell lysis buffer solution(50 mM of Sodium HEPES buffer solution containing 5 mM of magnesium chloride, 1 mM of DTT, 1% NP 40, 1 mM of EDTA, 1 mM of PMSF, 2 μM of leupeptin, 2 μM of pepstatin A and 2 μM of antipain) and the supernatant wherein the cells were lysed was obtained by high-velocity centrifugation of 12,000 g×5 minutes. The amount of radioisotope in the supernatant was measured and standardized to obtain a quantitative result in immunoprecipitation reaction and then, Y13-259, a monoclonal antiboby specifically binding to Ras protein(see: Furth, M. E. et al., J. Virol, 43, 294, 1982) was added and reacted for 15 hours at 4° C. Protein A(combined with goat anti-murine immunoglobulin antibody)-agarose suspension was added to the solution and reacted for 1 hour at 4° C. and then, to remove the unspecific binding product, immunoprecipitates were washed with a buffer solution (50 mM Tris chloride buffer solution containing 50 mM of sodium chloride, 0.5% of sodium dioxycholate, 0.5% of NP 40 and 0.1% of SDS). The precipitates were added to a buffer solution for electrophoresis and boiled and then, electrophoresis was performed using 13.5% of SDS polyacrylamide gel. After electrophoresis, the gel was fixed and dried. Then, the gel was exposed to X-ray film, developed and printed. From the result of the experiment, intensities of band of protein combined with or without farnesyl of Ras protein was measured, and the concentration of the test compound inhibiting 50% of farnesyl binding was defined as CIC50, an in vivo Ras farnesyl transferase inhibitory activity. IC50 means the data from Experimental 1 and CIC50 means the data from Experimental 2.

Ras farnesyl transferase [2] = target: T1, Ras farnesyl transferase; test: In vivo (intracellular) Ras farnesylation inhibition in Rat2 cell line expressing C-Harvey-Ras; type: cell-based; conditions: Rat2 cells expressing C-Harvey-Ras; concentration inhibiting 50% of farnesyl binding; read-out: H-Ras CIC50
Protocol: as §1, §2

Ras farnesyl transferase [3] = target: T2, Ras farnesyl transferase (Homo sapiens, UniProt P49354+P49356); test: Ras farnesyl transferase enzyme inhibition, K-Ras substrate (H-Ras fused with polybasic lysine domain of K-Ras); type: biochemical; conditions: K-Ras substrate (fused protein of H-Ras with polybasic lysine domain of K-Ras); recombinant farnesyl transferase
T2 construct: made in house
From the text: (§3) In the present experiment, the improved Pompliano's method (see: Pompliano et al., Biochemistry, 31, 3800, 1992) was applied. Specifically, Ras farnesyl transferase produced by genetic recombination techniques was used, and fused protein of H-Ras(H-Ras-CVLS) substituted with polybasic lysine domain at C-terminus of K-Ras (see: Korean Patent Appln. No. 97-14409) was used as a substrate after it had been purified according to the known method(see, Chung et al., Biochimica et Biophysica Acta, 1129, 278, 1992).
(§4) The enzyme reaction was performed in 50 μl of 50 mM Sodium HEPES buffer solution containing 25 mM of potassium chloride, 25 mM of magnesium chloride, 10 mM of DTT and 50 μM of zinc chloride. 1.5 μM of Ras substrate protein, 0.15 μM of tritium-farnesylpyrophosphate and 4.5 nM of farnesyl transferase were used. More specifically, in the initial step, farnesyl transferase was added to the above buffer solution, reaction was maintained for 30 minutes at 37° C. and then the reaction was stopped by adding 1 ml of ethanol solution containing 1M HCl. The formed precipitates were adsorbed to GF/B filter using Hopper harvestor(Hopper #FH 225V) for filter-binding, washed with ethanol, and then radioactivity of the dried filter was measured using LKB β counter. Enzyme titer was measured in the unsaturated state of substrate where the concentration of Ras substrate protein and farnesyl transferase have quantitative relationship. The compound according to the present invention dissolved in dimethyl sulfoxide(DMSO) was added to the reaction solution in an amount of less than 5% of the total reaction solution, and then the enzyme inhibitory activity thereof was measured. The enzyme inhibitory activity was represented by percentage of the amount of farnesyl incorporated into the Ras substrate protein in the presence of the test compound to that in the absence of the test compound. IC50 of the test compound was defined as the concentration at which 50% of the enzyme activity was inhibited. To evaluate the selective enzyme inhibitory activity of the compound according to the present invention, inhibitory activity on geranylgeranyl transferase was measured. Geranylgeranyl transferase was purified from bovine brain according to the modified Schaber's method(Schaber et al., J. Biol. Chem. 265, 14701, 1990), and substantially the same experimental procedure as that for farnesyl transferase was performed on geranylgeranyl pyrophosphate and Ras-CVIL substrate protein.

Ras farnesyl transferase [4] = target: T2, Ras farnesyl transferase; test: Ras farnesyl transferase enzyme inhibition, H-Ras substrate; type: biochemical; conditions: H-Ras substrate protein; recombinant farnesyl transferase; 30 minutes at 37° C.
From the text: as §3, §4

Compound | IC50 (Ras farnesyl transferase [1]) | IC50 (Ras farnesyl transferase [2]) | IC50 (Ras farnesyl transferase [3]) | IC50 (Ras farnesyl transferase [4])
1-[1-(3-benzyloxypropyl)-2-methyl-1H-imidazol-5-ylmethyl]-3-[N-(2-methoxyethyl)-N-methyl]carbamoyl-4-(naphthalen-1-yl)-1H-pyrrole [Example 34] | > 10 µM | > 0.0125 µM | < 0.0047 µM | < 0.004 µM
COCCN(C)C(=O)c1cn(Cc2cncn2CCCOCc2ccccc2)cc1-c1cccc2ccccc12 [Example 1, 1-[1-(3-benzyloxypropyl)-1H-imidazol-5-yl]methyl-3-[N-(2-methoxyethyl)-N-methyl]carbamoyl-4-(naphthalen-1-yl)-1H-pyrrole] | 10 to 50 µM | < 0.025 µM | < 0.01 µM | < 0.01 µM
O=C(c1cn(Cc2cncn2CCCOCc2ccccc2)cc1-c1cccc2ccccc12)N1CCOCC1 [Example 2, 1-[1-(3-benzyloxypropyl)-1H-imidazol-5-yl]methyl-3-(morpholin-4-yl)carbonyl-4-(naphthalen-1-yl)-1H-pyrrole] | 10 to 50 µM | < 0.025 µM | < 0.01 µM | < 0.01 µM
CN1CCN(C(=O)c2cn(Cc3cncn3CCCOCc3ccccc3)cc2-c2cccc3ccccc23)CC1 [Example 3, 1-[1-(3-benzyloxypropyl)-1H-imidazol-5-yl]methyl-3-(4-methylpiperazin-1-yl)carbonyl-4-(naphthalen-1-yl)-1H-pyrrole] | 10 to 50 µM | < 0.025 µM | < 0.01 µM | < 0.01 µM
COCCN(C)C(=O)c1cn(Cc2cncn2CCCOc2ccccc2)cc1-c1cccc2ccccc12 [Example 4, 3-[N-(2-methoxyethyl)-N-methyl]carbamoyl-4-(naphthalen-1-yl)-1-[1-(3-phenoxypropyl)-1H-imidazol-5-yl]methyl-1H-pyrrole] | 10 to 100 µM | < 0.025 µM | < 0.01 µM | < 0.01 µM
COCCN(C)C(=O)c1cn(Cc2cncn2CCCSc2ccccc2)cc1-c1cccc2ccccc12 [Example 5, 3-[N-(2-methoxyethyl)-N-methyl]carbamoyl-4-(naphthalen-1-yl)-1-[1-(3-thiophenoxypropyl)-1H-imidazol-5-yl]methyl-1H-pyrrole] | 10 to 50 µM | < 0.025 µM | < 0.01 µM | < 0.01 µM
O=C(c1cn(Cc2cncn2CCCOc2ccccc2)cc1-c1cccc2ccccc12)N1CCOCC1 [Example 6, 3-(morpholin-4-yl)carbonyl-4-(naphthalen-1-yl)-1-[1-(3-phenoxypropyl)-1H-imidazol-5-yl]methyl-1H-pyrrole] | 10 to 50 µM | < 0.025 µM | < 0.01 µM | < 0.01 µM
CN1CCN(C(=O)c2cn(Cc3cncn3CCCOc3ccccc3)cc2-c2cccc3ccccc23)CC1 [Example 7, 3-(4-methylpiperazin-1-yl)carbonyl-4-(naphthalen-1-yl)-1-[1-(3-phenoxypropyl)-1H-imidazol-5-yl]methyl-1H-pyrrole] | 10 to 50 µM | < 0.025 µM | < 0.01 µM | < 0.01 µM
CCSCCCn1cncc1Cn1cc(C(=O)N(C)CCOC)c(-c2cccc3ccccc23)c1 [Example 8, 3-[N-(2-methoxyethyl)-N-methyl]carbamoyl-4-(naphthalen-1-yl)-1-[1-(3-thioethoxypropyl)-1H-imidazol-5-yl]methyl-1H-pyrrole] | 10 to 50 µM | > 0.025 µM | < 0.01 µM | < 0.01 µM
COCCN(C)C(=O)c1cn(Cc2cncn2CCCN2CCOCC2)cc1-c1cccc2ccccc12 [Example 9, 3-[N-(2-methoxyethyl)-N-methyl]carbamoyl-1-{1-[3-(morpholin-4-yl)propyl]-1H-imidazol-5-yl}methyl-4-(naphthalen-1-yl)-1H-pyrrole] | 10 to 50 µM | < 0.025 µM | < 0.01 µM | < 0.01 µM
COCCN(C)C(=O)c1cn(Cc2cncn2CCc2cccs2)cc1-c1cccc2ccccc12 [Example 10, 3-[N-(2-methoxyethyl)-N-methyl]carbamoyl-4-(naphthalen-1-yl)-1-{1-[2-(thiophen-2-yl)ethyl]-1H-imidazol-5-yl}methyl-1H-pyrrole] | 10 to 50 µM | > 0.025 µM | < 0.1 µM | < 0.01 µM
CN1CCN(C(=O)c2cn(Cc3cncn3CCc3cccs3)cc2-c2cccc3ccccc23)CC1 [Example 11, 3-(4-methylpiperazin-1-yl)carbonyl-4-(naphthalen-1-yl)-1-{1-[2-(thiophen-2-yl)ethyl]-1H-imidazol-5-yl}methyl-1H-pyrrole] | 10 to 50 µM | > 0.025 µM | < 0.1 µM | < 0.01 µM
CN1CCN(C(=O)c2cn(Cc3cncn3Cc3ccco3)cc2-c2cccc3ccccc23)CC1 [Example 12, 1-[1-(furan-2-yl)methyl-1H-imidazol-5-yl]methyl-3-(4-methylpiperazin-1-yl)carbonyl-4-(naphthalen-1-yl)-1H-pyrrole] | 10 to 50 µM | > 0.025 µM | < 0.1 µM | < 0.01 µM
COCCN(C)C(=O)c1cn(Cc2cncn2C2CCN(Cc3ccccc3)CC2)cc1-c1cccc2ccccc12 [Example 13, 1-[1-(1-benzylpiperidin-4-yl)-1H-imidazol-5-yl]methyl-3-[N-(2-methoxyethyl)-N-methyl]carbamoyl-4-(naphthalen-1-yl)-1H-pyrrole] | 10 to 50 µM | < 0.025 µM | < 0.01 µM | < 0.01 µM
O=C(c1cn(Cc2cncn2C2CCN(Cc3ccccc3)CC2)cc1-c1cccc2ccccc12)N1CCOCC1 [Example 14, 1-[1-(1-benzylpiperidin-4-yl)-1H-imidazol-5-yl]methyl-3-(morpholin-4-yl)carbonyl-4-(naphthalen-1-yl)-1H-pyrrole] | 10 to 50 µM | < 0.025 µM | < 0.01 µM | < 0.01 µM
Cc1ncc(Cn2cc(C(=O)N3CCN(C)CC3)c(-c3cccc4ccccc34)c2)n1Cc1ccc2c(c1)OCO2 [Example 15, 1-[2-methyl-1-(3,4-methylenedioxybenzyl)-1H-imidazol-5-ylmethyl]-3-(4-methylpiperazin-1-yl)carbonyl-4-(naphthalen-1-yl)-1H-pyrrole] | > 10 µM | > 0.025 µM | < 0.013 µM | < 0.006 µM
